Results from US4609496A, “Steroid esters of N-(2-halogenoethyl)-N-nitroso-carbamoyl-amino acids and peptides thereof, as well as methods for preparing them” (Stiftung Deutsches Krebsforshungszentrum, priority 1982, dated 1986).

Key:
[1] = Toxicity of the compounds (LD50); assay type: in vivo; conditions: for LD50 at 2160 h: in vivo, period of observation: 90 days (printed with the cortisone ester)
Text: Data on the toxicity of the compounds

rat leukemia L 5222 = test: Therapy test using the model of rat leukemia L 5222; assay type: in vivo; conditions: for optimal dose: L 5222
Text: In the therapy test using the model of rat leukemia L 5222 (Ivankovic, Zeller, Leukamie L 5222 des Rattenstammes BD IX. Eine durch Athylnitrosoharnstoff induzierte monozytar-myeloische, transplantierbare Form fur zytochemische und chemotherapeutische Studien [Leukemia L 5222 of Rats of Stock BD IX. A monocytic-myeloid, transplantable form induced by ethylnitrosourea for cytochemical and chemotherapeutic studies]. Blut [Blood], 28; 288-292, 1974 and Zeller, Ivankovic, Schmahl, Cancer Research, Vol. 35, 1168-1174, 1975), the cortisone conjugate has good activity. At 176 mg/kg, the total median (replicated experiment!) at 65 days was 3 cured animals out of 6, while with CNU alanine in an equimolar dose with cortisone no cures were attained, with a median survival time of 20 days.

estrogen receptor = estrogen receptor (Homo sapiens, UniProt P03372); test: biochemical; conditions: for affinity relative to estradiol (100%): parameter of 50% bonding inhibition of 3H-tagged estradiol
estrogen receptor, sequence (P03372 whole entry): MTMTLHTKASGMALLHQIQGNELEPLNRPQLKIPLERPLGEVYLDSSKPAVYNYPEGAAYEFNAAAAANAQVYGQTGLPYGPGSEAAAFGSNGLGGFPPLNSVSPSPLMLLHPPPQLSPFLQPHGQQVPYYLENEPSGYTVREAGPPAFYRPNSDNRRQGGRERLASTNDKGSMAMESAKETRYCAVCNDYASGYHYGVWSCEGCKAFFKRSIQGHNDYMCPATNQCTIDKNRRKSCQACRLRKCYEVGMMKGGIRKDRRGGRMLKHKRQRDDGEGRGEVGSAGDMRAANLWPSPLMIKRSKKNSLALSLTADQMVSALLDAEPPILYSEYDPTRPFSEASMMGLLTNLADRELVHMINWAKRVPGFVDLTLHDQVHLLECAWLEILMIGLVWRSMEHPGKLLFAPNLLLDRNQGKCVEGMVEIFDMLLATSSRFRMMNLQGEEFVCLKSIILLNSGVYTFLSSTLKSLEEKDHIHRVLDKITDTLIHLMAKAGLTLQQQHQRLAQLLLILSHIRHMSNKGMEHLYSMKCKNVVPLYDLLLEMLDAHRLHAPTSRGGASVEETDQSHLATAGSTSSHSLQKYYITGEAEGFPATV
Text: The estrogen-linked compounds were subjected to an estrogen receptor test (Lebercytosol) (Kranzfelder, Schneider, von Angerer, Schoneberger, J. Cancer Research Chim. Oncol. 97, 167-186 (1980)).

## C[C@H](NC(=O)N(CCCl)N=O)C(=O)O [CNU alanine, reference compound]
[1]
  LD50 at 2160 h: 40 to 50 mg/kg
Rat leukemia L 5222; equimolar dose with cortisone
  cures: no cures
  median survival time: 20 days

## CC(NC(=O)N(CCCl)N=O)C(=O)OCC(=O)C1(O)CCC2C3CCC4=CC(=O)CCC4(C)C3C(=O)CC21C [N-(2-chloroethyl)-N-nitroso-carbamoyl-L-alanine-cortisone-21-ester]
[1]
  LD50 at 2160 h: 220 to 280 mg/kg
[1]; relative to CNU alanine
  reduction in toxicity by linking CNU alanine with cortisone: sharp reduction in toxicity (by approximately threefold)
Rat leukemia L 5222; 176 mg/kg
  cured animals: 3 cured animals out of 6
Rat leukemia L 5222; 176 mg/kg, replicated experiment
  total median (survival): 65 days
Rat leukemia L 5222; rat leukemia L 5222
  activity in therapy test: good activity

## C[C@H](NC(=O)N(CCCl)N=O)C(=O)Oc1ccc2c(c1)CC[C@@H]1[C@@H]2CC[C@]2(C)[C@@H](O)CC[C@@H]12 [N-(2-chloroethyl)-N-nitroso-carbamoyl-L-alanine-estradiol-3-ester]
Estrogen receptor
  IC50: 50 nM
  affinity relative to estradiol (100%): 16%
Rat leukemia L 5222
  optimal dose: 279 mg/kg
Rat leukemia L 5222; optimal dose 279 mg/kg
  cures: 2 cures
  median survival time: 49 days

## C[C@H](NC(=O)N(CCCl)N=O)C(=O)Oc1ccc2c(c1)CC[C@@H]1[C@@H]2CC[C@]2(C)C(=O)CC[C@@H]12 [N-(2-chloroethyl)-N-nitroso-carbamoyl-L-alanine-estrone-ester]
Estrogen receptor
  IC50: 190 nM
  affinity relative to estradiol (100%): 4%
Rat leukemia L 5222
  optimal dose: 351 mg/kg
Rat leukemia L 5222; compared with the cortisone derivative
  toxicity measured in tumor-bearing animals: even lower than with the cortisone derivative
Rat leukemia L 5222; optimal dose 351 mg/kg
  total median (survival): 43 days
